These are literature values, as cited in US6500801B1, “Treatment for Dutch elm disease” (The Governing Council of the University of Toronto, priority 1997, dated 2002).

This data set relates to strains of O. ulmi.
With `CC1=COC2=C(C)C(=O)C(=O)c3c(C)ccc1c32` [mansonone F], the “inhibition of growth of strains of O. ulmi” value (“inhibition” below) is “inhibit the growth”.

On to `CC1=Cc2c(C(C)C)ccc(C)c2C(=O)C1=O` [mansonone C], for which the “inhibition” value is on record as “inhibit the growth”.

`CC1=Cc2c(c(C)cc(O)c2C(C)C)C(=O)C1=O` [mansonone G]: the “inhibition” value was “inhibit the growth”.

As for `CC1=Cc2c(c(C)cc3c2C(C)CO3)C(=O)C1=O` (stereo not drawn) [mansonone D], the “inhibition” value is recorded as “inhibit the growth”.

Regarding `CC1=CC2=C(C(=O)C1=O)C(C)CCC2C(C)C` (stereo not drawn) [mansonone A], the “inhibition” value is reported as “inhibit the growth”.

Consider `CC1=C2OCC(C)c3ccc(C)c(c32)C(=O)C1=O` (stereo not drawn) [mansonone E], for which the “inhibition” value is reported as “inhibit the growth”.
